Source: US12216121B2, “Methods and compositions for spacial and temporal measurement of catalytic activity” (The University of Chicago, priority 2017, dated 2025)

Experiment: Specificity of reporter dye (compound 8) towards metal ions and amino acids
Conditions: 1 mM metal ions, 5 mM H2O2 and amino acids, phosphate buffer pH 7.2; all tested except cysteine
Protocol: FIG. 5C illustrates the sensitivity of sensing dye, (compound 8) in presence of different analyte such as 1. Phosphate buffer (pH=7.2), 1 mM of 2. Na+, 3. K+, 4. Ca2+, 5. Fe2+, 6. Zn2+, and 5 mM of 7. H2O2, 8. His, 9. Ser, 10. Lys, 11. Val, and 12. Cys. Each intensity is normalized from the intensity of compound 8 before treatment with respective analytes.
The specificity of reporter dye was checked towards thiol disulfide exchange reaction and treated the reporter dye (compound 8) with different metal ions and amino acids.

For “thiopyridyl conjugated blocked 6′-O propargyl fluorescein [compound 8]”, the “reaction with metal ions and amino acids (fluorescence)” value was “No reaction was observed”.
